Assay results taken from patent US10899764B2, “Imidazo isoindole derivative, preparation method therefor and medical use thereof” (Jiangsu Hengrui Medicine Co., Ltd., priority 2015, dated 2021).
Counter-ions that a name gives are not always drawn. Like-named read-outs stand apart in the source and are kept apart here.

Tests used:
[1] = target: human IDO1 (Homo sapiens (Human), UniProt P14902); experiment: Inhibition activity on human IDO1 (enzyme assay, absorbance at 480 nm); format: biochemical; conditions: read-out: IC50 for inhibiting the activity of human IDO1
Chain of human IDO1 (P14902 whole entry): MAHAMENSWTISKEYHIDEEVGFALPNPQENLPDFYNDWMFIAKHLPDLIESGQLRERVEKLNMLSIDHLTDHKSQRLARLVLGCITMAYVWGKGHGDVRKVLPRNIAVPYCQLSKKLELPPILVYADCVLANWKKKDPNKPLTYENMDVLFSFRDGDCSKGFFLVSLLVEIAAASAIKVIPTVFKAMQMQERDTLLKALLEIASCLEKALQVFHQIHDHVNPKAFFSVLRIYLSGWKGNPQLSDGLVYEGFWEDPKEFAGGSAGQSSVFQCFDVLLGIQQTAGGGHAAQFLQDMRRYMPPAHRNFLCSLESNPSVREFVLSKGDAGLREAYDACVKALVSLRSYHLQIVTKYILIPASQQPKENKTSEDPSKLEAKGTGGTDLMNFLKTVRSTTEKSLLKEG
Description: Assay for Determining the Inhibition Activity of the Present Compounds on Human IDO1
Human IDO1 activity was tested in vitro by the following method.
This method is used to determine the inhibition effect of the compounds of the present invention on the activity of human IDO1.
The human IDO1 gene was transferred to Pet30a plasmid by gene cloning, and then transferred to competent Escherichia coli Rosseta. The IDO1 gene was scaled-up by culturing in liquid LB (Luria-Bertani) medium [which was prepared per liter according to “Molecular Cloning A Laboratory Manual” (J. Sambrook, D. W. Russell)]). The bacteria were collected and lysed by ultrasonic waves. The purified IDO1 was obtained by eluting from a column.
For testing, 24 μL of enzyme (IDO1) was diluted 100 times with 50 mM KPB to 2400 μL. The concentration of the enzyme solution was 2.6 ng/μL. A 96 well reaction plate (AXYGEN, PCR-96-FLT-C) (hereinafter referred to as the “reaction plate”) was added with the enzyme solution at 24 μL/well. The blank well was added with 24 μL of KPB [Preparation of KPB buffer (50 mM): 6.805 g of KH2PO4 was weighed using an analytical balance, and placed into a 1000 mL beaker, deionized water was added with a measuring cylinder to 900 ml, the pH was adjusted to 6.5 by 1M KOH, then the mixture was introduced into a 1 L measuring cylinder, and water was added to 1 L. It was stored at 4° C.]. Then, 1 μL of a compound or DMSO was added into the corresponding wells in the reaction plate. Preparation of solution A: 200 μL of 500 mM L-sodium ascorbate were added with 1050 μL of KPB, then the mixture was mixed uniformly for 3 seconds at the maximum speed in a turbine mixer. Solution B: 100 μL of 10 mM tryptophan were added with 100 μL of 100,000 unit/mL catalase, 5 μL of 10 mM methylene blue, and 1050 μL of KPB successively, then the mixture was mixed uniformly for 3 seconds at the maximum speed in a turbine mixer. Then, 1200 μL of solution A and 1200 μL of solution B were taken and mixed uniformly for 3 seconds at the maximum speed in a turbine mixer. The mixture was added to the reaction plate at 24 μL/well. The reaction plate was placed in a plate centrifuge and centrifuged for 15 seconds at the maximum speed, so that the reaction liquids converged to the bottom. The reaction mixture was mixed uniformly for 30 seconds on a shaker, and incubated for 1 hour at 37° C. in a constant temperature incubator. In the reaction plate, 30% (W/V) trichloroacetic acid was added at 10 μL/well, then the mixture was incubated for 15 minutes at 65° C. in an incubator. The reaction plate was centrifuged in a centrifuge for 5 minutes at 4700 RPM at room temperature. […] Then, 2% (W/V) 4-(dimethylamino)benzaldehyde/glacial acetic acid solution was added at 40 μL/well, and the mixture was mixed uniformly for 1 minute on a shaker at the maximum speed. After incubation for 2 minutes at room temperature, the absorbance at 480 nm was read on a Synergy HT (BIOTEK) reader.
The inhibition activity of the compounds of the present invention on human IDO1 was tested by the assay described above.

[2] = target: IDO in HeLa cells (Homo sapiens (Human), UniProt P14902); experiment: Inhibition activity on IDO in HeLa cells (INF-γ induced); format: cell-based; conditions: HeLa cells, INF-γ and tryptophan, 48 hours; read-out: IC50 for inhibiting the activity of IDO in HeLa cells
Chain of IDO in HeLa cells (P14902 whole entry): as above
Description: Assay for Determining the Inhibition Activity of the Present Compounds on IDO in HeLa Cells
IDO activity in HeLa cells was tested in vitro by the following method.
This method is used to determine the inhibition effect of the compounds of the present invention on the activity of IDO in HeLa cells. (Note: indoleamine 2,3-dioxygenase (IDO) is expressed in the HeLa cell line and induced by interferon gamma (INF-γ)).
The supernatant was removed, serum-free DMEM high glucose medium was added at 90 μL/well, then the compounds contained in the culture medium with INF-γ and tryptophan were added at 10 μL/well (the final concentrations: 10000, 1000, 100, 10, 1, 0.1 nM). […] Then, 80 μL of the supernate was transferred from the 96-well cell culture plate to a 96 well round-bottomed plate, then 30% (W/V) trichloroacetic acid was added at 16 μL/well, then the mixture was incubated for 25 minutes at 65° C. in an incubator. The reaction plate was centrifuged in a centrifuge for 5 minutes at 4700 RPM. Then, 50 μL of the supernatant was transferred from the reaction plate to a 96-well flat-bottomed transparent plate by a multi-channel pipette. Then, 2% (W/V) 4-(dimethylamino)benzaldehyde/glacial acetic acid solution was added at 50 μL/well, then the mixture was mixed uniformly for 1 minute on a shaker. After incubation for 2 minutes at room temperature, the absorbance at 480 nm was read on a Synergy HT Reader.
The inhibition activity of the compounds of the present invention on IDO in HeLa cells was tested by the assay described above.

[3] = purified recombinant human IDO1, 1 hour at 37° C.

Row | Compound | IC50 [1] | IC50 [2] | IC50 [1, 3]
1 | COCCn1cc(-c2ccc(N3CCC(C4c5c(F)cccc5-c5cncn54)CC3)cc2)cn1 (stereo not shown) [Example 42, 6-fluoro-5-(1-(4-(1-(2-methoxyethyl)-1H-pyrazol-4-yl)phenyl)piperidin-4-yl)-5H-imidazo[5,1-a]isoindole trifluoroacetate] | 36.3 nM | 254 nM | –
2 | Fc1cccc2c1C(C1CCN(c3ncccn3)CC1)n1cncc1-2 (stereo not shown) [Example 16, 6-fluoro-5-(1-(pyrimidin-2-yl)piperidin-4-yl)-5H-imidazo[5,1-a]isoindole trifluoroacetate] | – | 260 nM | –
3 | Fc1cccc2c1C(C1CCN(c3ccc(Cl)cn3)CC1)n1cncc1-2 (stereo not shown) [Example 47, 5-(1-(5-chloropyridin-2-yl)piperidin-4-yl)-6-fluoro-5H-imidazo[5,1-a]isoindole] | – | 88.3 nM | –
4 | Fc1cccc2c1C(C1CCN(c3ccc(-c4cnn(C5CCOC5)c4)cc3)CC1)n1cncc1-2 [Example 44, 6-fluoro-5-(1-(4-(1-((R)-tetrahydrofuran-3-yl)-1H-pyrazol-4-yl)phenyl)piperidin-4-yl)-5H-imidazo[5,1-a]isoindole trifluoroacetate] | 16.6 nM | 175 nM | –
5 | Fc1cccc2c1C(C1CCN(c3ccc(OC4CCOC4)cc3)CC1)n1cncc1-2 (stereo not shown) [Example 38, 6-fluoro-5-(1-(4-((tetrahydrofuran-3-yl)oxy)phenyl)piperidin-4-yl)-5H-imidazo[5,1-a]isoindole] | – | 151 nM | 28.1 nM
6 | O=C(NC1CCOCC1)c1ccc(N2CCC(C3c4c(F)cccc4-c4cncn43)CC2)cc1 (stereo not shown) [Example 11, 4-(4-(6-fluoro-5H-imidazo[5,1-a]isoindol-5-yl)piperidin-1-yl)-N-(tetrahydro-2H-pyran-4-yl)benzamide trifluoroacetate] | – | 477 nM | 73.2 nM
7 | CS(=O)(=O)N1CCC(n2cc(-c3ccc(N4CCC(C5c6c(F)cccc6-c6cncn65)CC4)cc3)cn2)CC1 (stereo not shown) [Example 31, 6-fluoro-5-(1-(4-(1-(1-(methylsulfonyl)piperidin-4-yl)-1H-pyrazol-4-yl)phenyl)piperidin-4-yl)-5H-imidazo[5,1-a]isoindole trifluoroacetate] | 14.2 nM | – | –
8 | Cn1cc(-c2cccc(N3CCC(C4c5c(F)cccc5-c5cncn54)CC3)c2)cn1 (stereo not shown) [Example 8, 6-fluoro-5-(1-(3-(1-methyl-1H-pyrazol-4-yl)phenyl)piperidin-4-yl)-5H-imidazo[5,1-a]isoindole] | – | 253 nM | 78.8 nM
9 | CC(=O)Nc1cccc(N2CCC(C3c4c(F)cccc4-c4cncn43)CC2)c1 (stereo not shown) [Example 12, N-(3-(4-(6-fluoro-5H-imidazo[5,1-a]isoindol-5-yl)piperidin-1-yl)phenyl)acetamide trifluoroacetate] | – | 70.6 nM | 68.7 nM
10 | COc1cccc(NC(=O)C2CCC([C@@H]3c4c(F)cccc4-c4cncn43)CC2)c1 (stereo partly drawn) [Example 33, (1S,4S)-4-((R)-6-fluoro-5H-imidazo[5,1-a]isoindol-5-yl)-N-(3-methoxyphenyl)cyclohexanecarboxamide] | – | 47.2 nM | –
11 | O=C(Nc1ccccc1)N1CCC(C2c3c(F)cccc3-c3cncn32)CC1 (stereo not shown) [Example 21, 4-(6-fluoro-5H-imidazo[5,1-a]isoindol-5-yl)-N-phenylpiperidine-1-carboxamide trifluoroacetate] | – | 477 nM | –
12 | Fc1cccc2c1C(C1CCN(c3ccc(-c4cnn([C@@H]5CCOC5)c4)cc3)CC1)n1cncc1-2 (stereo partly drawn) [Example 32, 6-fluoro-5-(1-(4-(1-((R)-tetrahydrofuran-3-yl)-1H-pyrazol-4-yl)phenyl)piperidin-4-yl)-5H-imidazo[5,1-a]isoindole trifluoroacetate] | 33 nM | 225 nM | –
13 | CS(=O)(=O)N1CCCC(Oc2cnc(N3CCC(C4c5c(F)cccc5-c5cncn54)CC3)nc2)C1 (stereo not shown) [Example 37, 6-fluoro-5-(1-(5-((1-(methylsulfonyl)piperidin-3-yl)oxy)pyrimidin-2-yl)piperidin-4-yl)-5H-imidazo[5,1-a]isoindole trifluoroacetate] | – | 114 nM | 17.8 nM
14 | N#Cc1ccc(NC(=O)N2CCC(C3c4c(F)cccc4-c4cncn43)CC2)cc1 (stereo not shown) [Example 22, N-(4-cyanophenyl)-4-(6-fluoro-5H-imidazo[5,1-a]isoindol-5-yl)piperidine-1-carboxamide trifluoroacetate] | – | 130 nM | 56.9 nM
15 | Fc1cccc2c1C(C1CCN(c3ccccn3)CC1)n1cncc1-2 (stereo not shown) [Example 15, 6-fluoro-5-(1-(pyridin-2-yl)piperidin-4-yl)-5H-imidazo[5,1-a]isoindole trifluoroacetate] | – | 199 nM | –
16 | CC(=O)NCCn1cc(-c2ccc(N3CCC(C4c5c(F)cccc5-c5cncn54)CC3)cc2)cn1 (stereo not shown) [Example 43, N-(2-(4-(4-(4-(6-fluoro-5H-imidazo[5,1-a]isoindol-5-yl)piperidin-1-yl)phenyl)-1H-pyrazol-1-yl)ethyl)acetamide trifluoroacetate] | 63.3 nM | 171 nM | –
17 | COc1ccc(N2CCC(C3c4c(F)cccc4-c4cncn43)CC2)cc1 (stereo not shown) [Example 4, 6-fluoro-5-(1-(4-methoxyphenyl)piperidin-4-yl)-5H-imidazo[5,1-a]isoindole trifluoroacetate] | – | 188 nM | 96.2 nM
